# Laboratory results from patent publication US6358885B1, “Substituted phenylheterocyclic herbicides” (Mississippi State University, priority 1992, dated 2002).
# How the values were obtained:
# Assay in all cases: Test B preemergence/postemergence greenhouse plant response rating 0 to 10
# Conditions in all cases: 0 to 10 scale
# barnyardgrass = format: in vivo, Echinochloa crus-galli
# Source text: (§1) Seeds of barley (Hordeum vulgare), barnyardgrass (Echinochloa crus-galli), bedstraw (Galium aparine), blackgrass (Alopecurus myosuroides), […] (Bromus secalinus), chickweed (Stellaria media), cocklebur (Xanthium pensylvanicum), corn (Zea mays), cotton (Gossypium hirsutum), crabgrass (Digitaria spp.), giant foxtail (Setaria faberii), lambsquarters (Chenopodium album), morningglory (Ipomoea hederacea), rape (Brassica napus), rice (Oryza sativa), sorghum (Sorghum bicolor), soybean (Glycine max), sugar beet (Beta vulgaris), velvetleaf (Abutilon theophrasti), wheat (Triticum aestivum), wild buckwheat (Polygonum convolvulus), and wild oat (Avena fatua) and purple nutsedge. (Cyperus rotundus) tubers were planted and treated preemergence with test chemicals dissolved in a non-phytotoxic solvent. At the same time, these crop and weed species were also treated with postemergence applications of test chemicals. Plants ranged in height from two to eighteen cm (one to four leaf stage) for postemergence treatments. Treated plants and controls were maintained in a greenhouse for twelve to sixteen days, after which all species were compared to controls and visually evaluated. […] A dash (-) response means no test result.
# morningglory = format: in vivo, Ipomoea hederacea
# Source text: as §1
# crabgrass = format: in vivo, Digitaria spp.
# Source text: as §1
# soybean = format: in vivo, Glycine max
# Source text: as §1
# barley = format: in vivo, Hordeum vulgare
# Source text: as §1
# purple nutsedge = format: in vivo, Cyperus rotundus
# Source text: as §1
# cotton = format: in vivo, Gossypium hirsutum
# Source text: as §1
# rape = format: in vivo, Brassica napus
# Source text: as §1
# giant foxtail = format: in vivo, Setaria faberii
# Source text: as §1
# wild buckwheat = format: in vivo, Polygonum convolvulus
# Source text: as §1
# lambsquarters = format: in vivo, Chenopodium album
# Source text: as §1
# rice = format: in vivo, Oryza sativa
# Source text: as §1
# wheat = format: in vivo, Triticum aestivum
# Source text: as §1
# wild oat = format: in vivo, Avena fatua
# Source text: as §1
# velvetleaf = format: in vivo, Abutilon theophrasti
# Source text: as §1
# sorghum = format: in vivo, Sorghum bicolor
# Source text: as §1
# bedstraw = format: in vivo, Galium aparine
# Source text: as §1
# cheatgrass = format: in vivo, Bromus secalinus
# Source text: as §1
# chickweed = format: in vivo, Stellaria media
# Source text: as §1
# cocklebur = format: in vivo, Xanthium pensylvanicum
# Source text: as §1
# blackgrass = format: in vivo, Alopecurus myosuroides
# Source text: as §1
# corn = format: in vivo, Zea mays
# Source text: as §1
# sugar beet = format: in vivo, Beta vulgaris
# Source text: as §1
structure (smiles),measurement,setting,value
CCC(=O)Oc1cc(-c2nn3c(c2Cl)CCCC3)c(F)cc1Cl [Compound 47],"Plant response rating, Barnyardgrass","barnyardgrass; POSTEMERGENCE, Rate 50 g/ha",6
same,"Plant response rating, Barnyardgrass","barnyardgrass; POSTEMERGENCE, Rate 200 g/ha",9
same,"Plant response rating, Barnyardgrass","barnyardgrass; PREEMERGENCE, Rate 50 g/ha",0
same,"Plant response rating, Barnyardgrass","barnyardgrass; Rate 200 g/ha, PREEMERGENCE",0
same,"Plant response rating, Morningglory","morningglory; POSTEMERGENCE, Rate 50 g/ha",9
same,"Plant response rating, Morningglory","morningglory; PREEMERGENCE, Rate 50 g/ha",1
same,"Plant response rating, Morningglory","morningglory; Rate 200 g/ha, POSTEMERGENCE",10
same,"Plant response rating, Morningglory","morningglory; Rate 200 g/ha, PREEMERGENCE",3
same,"Plant response rating, Crabgrass","crabgrass; POSTEMERGENCE, Rate 50 g/ha",3
same,"Plant response rating, Crabgrass","crabgrass; POSTEMERGENCE, Rate 200 g/ha",6
same,"Plant response rating, Crabgrass","crabgrass; PREEMERGENCE, Rate 50 g/ha",0
same,"Plant response rating, Crabgrass","crabgrass; Rate 200 g/ha, PREEMERGENCE",0
same,"Plant response rating, Soybean","soybean; POSTEMERGENCE, Rate 50 g/ha",7
same,"Plant response rating, Soybean","soybean; PREEMERGENCE, Rate 50 g/ha",0
same,"Plant response rating, Soybean","soybean; Rate 200 g/ha, POSTEMERGENCE",7
same,"Plant response rating, Soybean","soybean; Rate 200 g/ha, PREEMERGENCE",0
same,"Plant response rating, Barley","barley; POSTEMERGENCE, Rate 50 g/ha",5
same,"Plant response rating, Barley","barley; POSTEMERGENCE, Rate 200 g/ha",4
same,"Plant response rating, Barley","barley; PREEMERGENCE, Rate 50 g/ha",0
same,"Plant response rating, Barley","barley; Rate 200 g/ha, PREEMERGENCE",0
same,"Plant response rating, Nutsedge","purple nutsedge; POSTEMERGENCE, Rate 50 g/ha",2
same,"Plant response rating, Nutsedge","purple nutsedge; PREEMERGENCE, Rate 50 g/ha",0
same,"Plant response rating, Nutsedge","purple nutsedge; Rate 200 g/ha, POSTEMERGENCE",8
same,"Plant response rating, Nutsedge","purple nutsedge; Rate 200 g/ha, PREEMERGENCE",0
same,"Plant response rating, Cotton","cotton; POSTEMERGENCE, Rate 50 g/ha",10
same,"Plant response rating, Cotton","cotton; POSTEMERGENCE, Rate 200 g/ha",10
same,"Plant response rating, Cotton","cotton; PREEMERGENCE, Rate 50 g/ha",0
same,"Plant response rating, Cotton","cotton; Rate 200 g/ha, PREEMERGENCE",2
same,"Plant response rating, Rape","rape; POSTEMERGENCE, Rate 50 g/ha",3
same,"Plant response rating, Rape","rape; PREEMERGENCE, Rate 50 g/ha",1
same,"Plant response rating, Rape","rape; Rate 200 g/ha, POSTEMERGENCE",6
same,"Plant response rating, Rape","rape; Rate 200 g/ha, PREEMERGENCE",2
same,"Plant response rating, Giant foxtail","giant foxtail; POSTEMERGENCE, Rate 50 g/ha",4
same,"Plant response rating, Giant foxtail","giant foxtail; PREEMERGENCE, Rate 50 g/ha",0
same,"Plant response rating, Giant foxtail","giant foxtail; Rate 200 g/ha, POSTEMERGENCE",6
same,"Plant response rating, Giant foxtail","giant foxtail; Rate 200 g/ha, PREEMERGENCE",5
same,"Plant response rating, Wild buckwheat","wild buckwheat; POSTEMERGENCE, Rate 50 g/ha",10
same,"Plant response rating, Wild buckwheat","wild buckwheat; PREEMERGENCE, Rate 50 g/ha",0
same,"Plant response rating, Wild buckwheat","wild buckwheat; Rate 200 g/ha, POSTEMERGENCE",10
same,"Plant response rating, Wild buckwheat","wild buckwheat; Rate 200 g/ha, PREEMERGENCE",9
same,"Plant response rating, Lambsquarter","lambsquarters; POSTEMERGENCE, Rate 50 g/ha",7
same,"Plant response rating, Lambsquarter","lambsquarters; PREEMERGENCE, Rate 50 g/ha",9
same,"Plant response rating, Lambsquarter","lambsquarters; Rate 200 g/ha, POSTEMERGENCE",10
same,"Plant response rating, Lambsquarter","lambsquarters; Rate 200 g/ha, PREEMERGENCE",9
same,"Plant response rating, Rice","rice; POSTEMERGENCE, Rate 50 g/ha",4
same,"Plant response rating, Rice","rice; PREEMERGENCE, Rate 50 g/ha",0
same,"Plant response rating, Rice","rice; Rate 200 g/ha, POSTEMERGENCE",5
same,"Plant response rating, Rice","rice; Rate 200 g/ha, PREEMERGENCE",0
same,"Plant response rating, Wheat","wheat; POSTEMERGENCE, Rate 50 g/ha",3
same,"Plant response rating, Wheat","wheat; PREEMERGENCE, Rate 50 g/ha",0
same,"Plant response rating, Wheat","wheat; Rate 200 g/ha, POSTEMERGENCE",6
same,"Plant response rating, Wheat","wheat; Rate 200 g/ha, PREEMERGENCE",2
same,"Plant response rating, Wild oat","wild oat; POSTEMERGENCE, Rate 50 g/ha",3
same,"Plant response rating, Wild oat","wild oat; PREEMERGENCE, Rate 50 g/ha",0
same,"Plant response rating, Wild oat","wild oat; Rate 200 g/ha, POSTEMERGENCE",3
same,"Plant response rating, Velvetleaf","velvetleaf; POSTEMERGENCE, Rate 50 g/ha",8
same,"Plant response rating, Velvetleaf","velvetleaf; PREEMERGENCE, Rate 50 g/ha",2
same,"Plant response rating, Velvetleaf","velvetleaf; Rate 200 g/ha, POSTEMERGENCE",9
same,"Plant response rating, Velvetleaf","velvetleaf; Rate 200 g/ha, PREEMERGENCE",4
same,"Plant response rating, Sorghum","sorghum; POSTEMERGENCE, Rate 50 g/ha",3
same,"Plant response rating, Sorghum","sorghum; PREEMERGENCE, Rate 50 g/ha",0
same,"Plant response rating, Sorghum","sorghum; Rate 200 g/ha, POSTEMERGENCE",4
same,"Plant response rating, Sorghum","sorghum; Rate 200 g/ha, PREEMERGENCE",0
same,"Plant response rating, Bedstraw","bedstraw; POSTEMERGENCE, Rate 50 g/ha",9
same,"Plant response rating, Bedstraw","bedstraw; POSTEMERGENCE, Rate 200 g/ha",10
same,"Plant response rating, Bedstraw","bedstraw; PREEMERGENCE, Rate 50 g/ha",9
same,"Plant response rating, Bedstraw","bedstraw; Rate 200 g/ha, PREEMERGENCE",9
same,"Plant response rating, Cheatgrass","cheatgrass; POSTEMERGENCE, Rate 50 g/ha",4
same,"Plant response rating, Cheatgrass","cheatgrass; POSTEMERGENCE, Rate 200 g/ha",4
same,"Plant response rating, Cheatgrass","cheatgrass; PREEMERGENCE, Rate 50 g/ha",0
same,"Plant response rating, Cheatgrass","cheatgrass; Rate 200 g/ha, PREEMERGENCE",0
same,"Plant response rating, Chickweed","chickweed; POSTEMERGENCE, Rate 50 g/ha",9
same,"Plant response rating, Chickweed","chickweed; POSTEMERGENCE, Rate 200 g/ha",9
same,"Plant response rating, Chickweed","chickweed; PREEMERGENCE, Rate 50 g/ha",0
same,"Plant response rating, Chickweed","chickweed; Rate 200 g/ha, PREEMERGENCE",2
same,"Plant response rating, Cocklebur","cocklebur; POSTEMERGENCE, Rate 50 g/ha",6
same,"Plant response rating, Cocklebur","cocklebur; POSTEMERGENCE, Rate 200 g/ha",9
same,"Plant response rating, Cocklebur","cocklebur; PREEMERGENCE, Rate 50 g/ha",2
same,"Plant response rating, Cocklebur","cocklebur; Rate 200 g/ha, PREEMERGENCE",3
same,"Plant response rating, Blackgrass","blackgrass; POSTEMERGENCE, Rate 50 g/ha",4
same,"Plant response rating, Blackgrass","blackgrass; POSTEMERGENCE, Rate 200 g/ha",8
same,"Plant response rating, Blackgrass","blackgrass; PREEMERGENCE, Rate 50 g/ha",2
same,"Plant response rating, Blackgrass","blackgrass; Rate 200 g/ha, PREEMERGENCE",3
same,"Plant response rating, Corn","corn; POSTEMERGENCE, Rate 50 g/ha",4
same,"Plant response rating, Corn","corn; POSTEMERGENCE, Rate 200 g/ha",5
same,"Plant response rating, Corn","corn; PREEMERGENCE, Rate 50 g/ha",0
same,"Plant response rating, Corn","corn; Rate 200 g/ha, PREEMERGENCE",0
same,"Plant response rating, Sugar beet","sugar beet; POSTEMERGENCE, Rate 50 g/ha",10
same,"Plant response rating, Sugar beet","sugar beet; PREEMERGENCE, Rate 50 g/ha",1
same,"Plant response rating, Sugar beet","sugar beet; Rate 200 g/ha, POSTEMERGENCE",10
same,"Plant response rating, Sugar beet","sugar beet; Rate 200 g/ha, PREEMERGENCE",8
